Positions of bridges follow the written chain, without caps; N, C: chain ends. Residues, ends and D or L forms follow the SMILES beside them. No end group written: not given here.
Legend:
[1] = system: HIV-1 antibodies; experiment: ELISA, single peptides identifying HIV-1 positive sera; assay type: binding, human
Procedure: According to this test a peptide or a peptide mixture of the present invention is adsorbed onto the wells of a microtiter plate. The wells are then treated with sera to be tested. After washing, anti-human IgG labeled with peroxidase is added to the wells. The determination of the peroxidase is performed with a corresponding substrate, e.g. with o-phenylene diamine. Also in this procedure the peroxidase can be exchanged by another label, e.g. by a radioactive or fluorescence label.
(§1) Each well of the microtiter plate is saturated with 100 μl of a solution containing a peptide or mixture of peptides (5 μg/ml) and left overnight. The wells are emptied and washed twice with a washing buffer (Tris, 0.043M; NaCl, 0.5M;thimerosal, 0.01% w/v; Tween 20, 0.05% v/v; pH 7.4). The wells are then saturated with 0.35 ml of washing buffer for 1 hr. at 37° C. and washed once with the same buffer. Serum samples to be analyzed are diluted with specimen buffer (washing buffer plus casein, 0.05% w/v). The wells are rinsed with washing buffer prior to the addition of the diluted serum sample (0.1 ml). These are left to incubate for 1 hr. at room temperature. The wells are then emptied, washed twice rapidly and then once for two minutes with washing buffer. […] The wells are then emptied and washed twice rapidly with washing buffer and then five times in which the buffer was in contact with the well 2 minutes per washing.
(§2) The substrate solution (3,3', 5,5'-tetramethylbenzidine, 8 mg per ml of DMSO) is diluted with 100 volumes 0.1M citrate-acetate buffer, pH 5.6 containing 0.1% v/v of 30% H2 O2 and added to each well (0.1 ml per well). After 10 minutes the contents of each well is treated with 0.1 ml 2N H2 SO4 and the optical density read at 450 nm. All determinations are done in duplicate.

[2] = system: HIV-1-antibodies; experiment: ELISA, cyclic versus non-cyclic peptides, sera at various dilutions; assay type: binding, human
Procedure: TABLE 5 is provided to illustrate the sensitivity of cyclic versus noncyclic peptides in the ELISA test by comparing the results of some sera at various dilutions.
Plates used in this experiment were coated with solutions of peptides at 10 μg/ml. (Experimental results of TABLE 5 were obtained with plates coated with peptides at 0,5 μg/ml). Four different HIV-1 positive serum samples were serially diluted and their titers determined. The titer was defined as the serum dilution giving an absorbancy reading of 1:0 in the conditions of the ELISA procedure already described.
as §1, §2

With “NH2 -CGYLKDQQLLGIWGCSGKLICTTAVPWNASWSNKSLEQI-COOH [Peptide 97]” the “% Positive Sera correctly Identified” value ([1]; ELISA, single peptide) was 100%.

For “NH2 -CGLGIWGCSGKLICTTAVPWNASWSNKSLEQI-COOH [Peptide 98]”, the “% Positive Sera correctly Identified” value ([1]; ELISA, single peptide) was 100%.

In the case of CC[C@H](C)[C@H](NC(=O)[C@H](CCC(N)=O)NC(=O)[C@H](CCC(=O)O)NC(=O)[C@H](CC(C)C)NC(=O)[C@H](CO)NC(=O)[C@H](CCCCN)NC(=O)[C@H](CC(N)=O)NC(=O)[C@H](CO)NC(=O)[C@H](Cc1c[nH]c2ccccc12)NC(=O)[C@H](CO)NC(=O)[C@H](C)NC(=O)[C@H](CC(N)=O)NC(=O)[C@H](Cc1c[nH]c2ccccc12)NC(=O)[C@@H]1CCCN1C(=O)[C@@H](NC(=O)[C@H](C)NC(=O)[C@@H](NC(=O)[C@@H](NC(=O)[C@@H]1CSSC[C@H](NC(=O)CN)C(=O)N[C@@H](CO)C(=O)NCC(=O)N[C@@H](CCCCN)C(=O)N[C@@H](CC(C)C)C(=O)N[C@@H]([C@@H](C)CC)C(=O)N1)[C@@H](C)O)[C@@H](C)O)C(C)C)C(=O)O [Peptide 96] (H-GCSGKLICTTAVPWNASWSNKSLEQI-OH; disulfide 2-8), the “% Positive Sera correctly Identified” value ([1]; ELISA, single peptide) is reported as 100%.

“NH2 -VERYLKDQQLLGIWGCSGKLICTTAVPWNAS-COOH (H-VERYLKDQQLLGIWGCSGKLICTTAVPWNAS-OH; cysteine pairing not given here) [Peptide 81, linear peptide, gp41 590-620]” was tested, and the “% Positive Sera correctly Identified” value ([1]; ELISA, single peptide) was 100%.

For “NH2 -CGVERYLKQQLLGIWGCSGKLICTTAVPWNASWSNKSLEQI-COOH [Peptide 99]”, the “% Positive Sera correctly Identified” value ([1]; ELISA, single peptide) was 100%.

For GHACVPTDPNPQEVVL [Peptide 14], the “% Positive Sera correctly Identified” value ([1]; ELISA, single peptide) was 50%.

CGKIEPLGVAPTKAKRRVVQREKR [Peptide 71] was tested, and the “% Positive Sera correctly Identified” value ([1]; ELISA, single peptide) was 83%.

CC[C@H](C)[C@H](NC(=O)CNC(=O)[C@H](CC(C)C)NC(=O)[C@H](CC(C)C)NC(=O)[C@H](CCC(N)=O)NC(=O)[C@H](CCC(N)=O)NC(=O)[C@H](CC(=O)O)NC(=O)[C@H](CCCCN)NC(=O)[C@H](CC(C)C)NC(=O)[C@H](Cc1ccc(O)cc1)NC(=O)[C@H](CCCNC(=N)N)NC(=O)[C@H](CCC(=O)O)NC(=O)[C@@H](N)C(C)C)C(=O)N[C@@H](Cc1c[nH]c2ccccc12)C(=O)NCC(=O)N[C@H]1CSSC[C@@H](C(=O)N[C@H](C(=O)N[C@H](C(=O)N[C@@H](C)C(=O)N[C@H](C(=O)N2CCC[C@H]2C(=O)N[C@@H](Cc2c[nH]c3ccccc23)C(=O)N[C@@H](CC(N)=O)C(=O)N[C@@H](C)C(=O)N[C@@H](CO)C(=O)O)C(C)C)[C@@H](C)O)[C@@H](C)O)NC(=O)[C@H]([C@@H](C)CC)NC(=O)[C@H](CC(C)C)NC(=O)[C@H](CCCCN)NC(=O)CNC(=O)[C@H](CO)NC1=O [Peptide 88] (H-VERYLKDQQLLGIWGCSGKLICTTAVPWNAS-OH; disulfide 16-22) was tested, and the “% Positive Sera correctly Identified” value ([1]; ELISA, single peptide) was 100%.

In the case of “CGRAEQASQEVKN [Peptide 46, NH2 -CGRAEQASQEVKN-COOH]”, the “% Positive Sera correctly Identified” value ([1]; peptide Free) is reported as 0% and the “% Positive Sera correctly Identified” value ([1]; peptide coupled) is reported as 93%.

In the case of “NH2 -GCSGKLICTTAVPWNASWSWSNKSLEQI-COOH [Peptide 95]”, the “% Positive Sera correctly Identified” value ([1]; ELISA, single peptide) is reported as 100%.

Compound CC[C@H](C)[C@@H]1NC(=O)[C@H](CC(C)C)NC(=O)[C@H](CCCCN)NC(=O)CNC(=O)[C@H](CO)NC(=O)[C@@H](NC(=O)CN)CSSC[C@@H](C(=O)N[C@H](C(=O)N[C@H](C(=O)N[C@@H](C)C(=O)N[C@H](C(=O)N2CCC[C@H]2C(=O)N[C@@H](Cc2c[nH]c3ccccc23)C(=O)N[C@@H](CC(N)=O)C(=O)N[C@@H](C)C(=O)N[C@@H](CO)C(=O)O)C(C)C)[C@@H](C)O)[C@@H](C)O)NC1=O [Peptide 80] (H-GCSGKLICTTAVPWNAS-OH; disulfide 2-8) has an ELISA optical density ([2]; serum 87V103, dilution 1/50) of 0.003 optical density units, an ELISA optical density ([2]; serum 1428, dilution 1/50) of 1.047 optical density units and an ELISA optical density ([2]; serum M-5, dilution 1/50) of 2.104 optical density units. It also gave an ELISA optical density ([2]; serum M-5, dilution 1/100) of 1.881 optical density units, an ELISA optical density ([2]; serum M-5, dilution 1/200) of 1.599 optical density units and an ELISA optical density ([2]; serum M-5, dilution 1/800) of 0.767 optical density units. It also gave an ELISA optical density ([2]; serum M-7, dilution 1/50) of 0.191 optical density units, an ELISA optical density ([2]; serum M-7, dilution 1/100) of 0.067 optical density units and an ELISA optical density ([2]; serum M-7, dilution 1/200) of 0.019 optical density units. For the same compound, the ELISA optical density ([2]; serum M-7, dilution 1/400) was 0.010 optical density units, the ELISA optical density ([2]; serum M-7, dilution 1/800) was 0.005 optical density units and the ELISA optical density ([2]; serum M-8, dilution 1/50) was 1.026 optical density units. For the same compound, the ELISA optical density ([2]; serum M-8, dilution 1/100) was 0.737 optical density units, the ELISA optical density ([2]; serum M-8, dilution 1/200) was 0.520 optical density units and the ELISA optical density ([2]; serum M-8, dilution 1/400) was 0.340 optical density units. The ELISA optical density ([2]; serum M-8, dilution 1/800) was 0.159 optical density units, the ELISA optical density ([2]; serum M-16, dilution 1/50) was 1.601 optical density units and the ELISA optical density ([2]; serum M-16, dilution 1/100) was 1.300 optical density units. The ELISA optical density ([2]; serum M-16, dilution 1/200) was 0.903 optical density units, the ELISA optical density ([2]; serum M-16, dilution 1/400) was 0.583 optical density units and the ELISA optical density ([2]; serum M-16, dilution 1/800) was 0.329 optical density units. For the same compound, the “% Positive Sera correctly Identified” value ([1]; ELISA, single peptide) was 100%.

In the case of “CGNNPPIPVGE [Peptide 41, NH2 -CGNNPPIPVGE-COOH]”, the “% Positive Sera correctly Identified” value ([1]; peptide Free) is reported as 63% and the “% Positive Sera correctly Identified” value ([1]; peptide coupled) is reported as 73%.

With “NH2 -FAFAFGCSGKLICTTAVPWNASWSNKSLEQI-COOH [Peptide 91]” the “% Positive Sera correctly Identified” value ([1]; ELISA, single peptide) was 94%.

For TTAVPWNASWSNKSLEQGC [Peptide 42], the “% Positive Sera correctly Identified” value ([1]; ELISA, single peptide) was 5%.

With “NH2 -SGKLICTTAVPWNASWSNKSLEQGC-COOH [Peptide 56]” the “% Positive Sera correctly Identified” value ([1]; ELISA, single peptide) was 100%.

“NH2 -IWGCSGKLICTTAVPWNAS-COOH (H-IWGCSGKLICTTAVPWNAS-OH; cysteine pairing not given here) [Peptide 78, linear peptide, gp41 602-620]” was tested, and the “% Positive Sera correctly Identified” value ([1]; ELISA, single peptide) was 100%.

“NH2 -GCSGKLICTTAVPWNAS-COOH (H-GCSGKLICTTAVPWNAS-OH; cysteine pairing not given here) [Peptide 77, linear peptide, gp41 604-620]” showed an ELISA optical density ([2]; serum 87V103, dilution 1/50) of 0.000 optical density units, an ELISA optical density ([2]; serum 1428, dilution 1/50) of 0.926 optical density units and an ELISA optical density ([2]; serum M-5, dilution 1/50) of 1.719 optical density units. For the same compound, the ELISA optical density ([2]; serum M-5, dilution 1/100) was 1.459 optical density units, the ELISA optical density ([2]; serum M-5, dilution 1/200) was 1.248 optical density units and the ELISA optical density ([2]; serum M-5, dilution 1/400) was 0.959 optical density units. It also gave an ELISA optical density ([2]; serum M-5, dilution 1/800) of 0.057 optical density units, an ELISA optical density ([2]; serum M-7, dilution 1/50) of 0.142 optical density units and an ELISA optical density ([2]; serum M-7, dilution 1/100) of 0.025 optical density units. The ELISA optical density ([2]; serum M-7, dilution 1/200) was 0.007 optical density units, the ELISA optical density ([2]; serum M-7, dilution 1/400) was 0.001 optical density units and the ELISA optical density ([2]; serum M-7, dilution 1/800) was 0.000 optical density units. The ELISA optical density ([2]; serum M-8, dilution 1/50) was 0.795 optical density units, the ELISA optical density ([2]; serum M-8, dilution 1/100) was 0.507 optical density units and the ELISA optical density ([2]; serum M-8, dilution 1/200) was 0.376 optical density units. For the same compound, the ELISA optical density ([2]; serum M-8, dilution 1/400) was 0.209 optical density units, the ELISA optical density ([2]; serum M-8, dilution 1/800) was 0.062 optical density units and the ELISA optical density ([2]; serum M-16, dilution 1/50) was 1.219 optical density units. The ELISA optical density ([2]; serum M-16, dilution 1/100) was 0.962 optical density units, the ELISA optical density ([2]; serum M-16, dilution 1/200) was 0.613 optical density units and the ELISA optical density ([2]; serum M-16, dilution 1/400) was 0.301 optical density units. The ELISA optical density ([2]; serum M-16, dilution 1/800) was 0.205 optical density units and the “% Positive Sera correctly Identified” value ([1]; ELISA, single peptide) was 100%.

— US6214537A, “Synthetic peptides and mixtures thereof for detecting HIV antibodies” (Biochem Immunosystems, Inc., priority 1988, dated 2001)
